Measured values: US20160030440A1, “ANTI-TUMORAL COMPOSITION COMPRISING A PI3KBETA-SELECTIVE INHIBITOR AND A PI3KALPHA-SELECTIVE INHIBITOR” (SANOFI, priority 2013, published 2016)

Columns and labels:
[1] = target: PI3Kgamma (Homo sapiens, UniProt P48736); settings: PI3Kβ versus PI3Kgamma; cited from earlier work
[2] = target: PI3Kdelta (Homo sapiens, UniProt O00329); settings: PI3Kβ versus PI3Kdelta; cited from earlier work
[3] = target: T1, mTOR (Homo sapiens, UniProt P42345); settings: PI3Kβ versus mTOR; cited from earlier work
[4] = target: PI3Kalpha (Homo sapiens, UniProt P42336); settings: PI3Kβ versus PI3Kalpha; cited from earlier work
PI3Kalpha, sequence (P42336 whole entry, species assumed): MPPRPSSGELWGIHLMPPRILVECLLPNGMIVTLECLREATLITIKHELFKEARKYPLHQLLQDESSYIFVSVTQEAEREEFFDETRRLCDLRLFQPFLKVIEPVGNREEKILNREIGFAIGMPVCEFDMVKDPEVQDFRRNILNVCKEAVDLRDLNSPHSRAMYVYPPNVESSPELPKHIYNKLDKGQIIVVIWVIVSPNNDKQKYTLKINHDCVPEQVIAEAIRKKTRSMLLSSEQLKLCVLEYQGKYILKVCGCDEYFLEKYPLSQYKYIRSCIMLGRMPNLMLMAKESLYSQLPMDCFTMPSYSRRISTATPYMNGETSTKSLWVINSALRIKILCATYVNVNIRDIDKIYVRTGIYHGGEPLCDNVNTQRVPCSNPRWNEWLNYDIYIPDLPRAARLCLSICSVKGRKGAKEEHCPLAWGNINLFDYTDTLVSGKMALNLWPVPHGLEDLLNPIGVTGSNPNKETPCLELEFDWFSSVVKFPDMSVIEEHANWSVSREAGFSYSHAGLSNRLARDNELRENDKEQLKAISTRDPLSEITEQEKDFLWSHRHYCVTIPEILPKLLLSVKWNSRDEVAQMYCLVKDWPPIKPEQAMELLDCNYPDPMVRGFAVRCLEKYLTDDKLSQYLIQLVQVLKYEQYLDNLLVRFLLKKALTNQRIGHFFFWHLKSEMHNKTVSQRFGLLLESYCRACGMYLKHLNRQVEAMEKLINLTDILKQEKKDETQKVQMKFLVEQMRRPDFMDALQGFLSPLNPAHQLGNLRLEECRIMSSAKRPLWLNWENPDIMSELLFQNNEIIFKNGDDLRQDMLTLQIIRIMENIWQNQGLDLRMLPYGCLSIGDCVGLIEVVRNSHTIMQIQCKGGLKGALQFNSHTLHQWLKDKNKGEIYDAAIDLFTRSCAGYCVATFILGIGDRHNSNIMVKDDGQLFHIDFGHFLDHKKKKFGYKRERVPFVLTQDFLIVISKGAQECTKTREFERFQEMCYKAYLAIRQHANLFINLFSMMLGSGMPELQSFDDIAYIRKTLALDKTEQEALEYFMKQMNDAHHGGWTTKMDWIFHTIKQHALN
PI3Kalpha, sequence (P27986 whole entry partner, species assumed): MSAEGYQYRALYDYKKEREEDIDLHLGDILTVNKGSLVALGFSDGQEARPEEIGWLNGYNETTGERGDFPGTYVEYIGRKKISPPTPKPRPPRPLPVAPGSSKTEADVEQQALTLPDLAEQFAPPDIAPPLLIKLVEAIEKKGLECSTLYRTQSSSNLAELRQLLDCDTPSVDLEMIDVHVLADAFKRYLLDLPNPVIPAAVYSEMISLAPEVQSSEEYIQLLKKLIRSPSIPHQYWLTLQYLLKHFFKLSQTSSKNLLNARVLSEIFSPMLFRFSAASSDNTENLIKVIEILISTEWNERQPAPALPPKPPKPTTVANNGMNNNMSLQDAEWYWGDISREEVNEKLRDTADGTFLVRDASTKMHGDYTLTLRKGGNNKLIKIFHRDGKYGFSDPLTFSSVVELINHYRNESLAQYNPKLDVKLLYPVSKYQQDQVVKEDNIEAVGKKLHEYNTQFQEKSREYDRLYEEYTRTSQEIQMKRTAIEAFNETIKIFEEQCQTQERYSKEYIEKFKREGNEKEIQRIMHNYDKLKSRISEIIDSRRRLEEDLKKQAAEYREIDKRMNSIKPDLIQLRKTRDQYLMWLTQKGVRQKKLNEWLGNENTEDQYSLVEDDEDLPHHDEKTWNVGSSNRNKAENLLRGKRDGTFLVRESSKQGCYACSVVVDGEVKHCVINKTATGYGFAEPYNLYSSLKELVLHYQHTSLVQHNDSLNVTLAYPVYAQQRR

[5] = test system: 294 other kinases; settings: at 10 μM; cited from earlier work
[6] = test system: PC-3 cells; experiment: In vitro anti-proliferative activity, CelltiterGlo, ray design; type: cell-based, human; settings: PC-3, single agent, 96 hours; brackets: interval
Protocol: The human prostate cancer PC-3 cell line was purchased at ATCC (Ref number CRL-1435). The PC-3 cells were cultured in DMEM High Glucose medium supplemented with 10% FBS and 2 mM L-Glutamine.
They were diluted serially, in DMSO following a 3 or 3.3-fold dilution step: then each solution was diluted 50-fold in culture medium containing 10% serum before being added onto cells with a 20-fold dilution factor. The DMSO concentration was 0.1% in controls and in all treated wells.
(§1) A ray design method was used allowing the characterization of the interaction of the two compounds for several fixed proportion in the mixture. The ray design includes one ray for each single agent and 19 combination rays.
PC-3 cells were plated at 1,000 cells/well in 384-well plates in appropriate culture medium and incubated for 6 hours at 37° C., 5% CO2. […] Cell growth was evaluated by measuring intracellular ATP using CelltiterGlo® reagent (Promega) according to the manufacturer's protocol. Briefly, CellTiterGlo® was added to each plate, incubated for 1 hour then luminescent signal was read on the MicroBeta Luminescent plate reader. Three experiments have been performed on the cell line. […]
Growth inhibition percentage (GI %) was calculated according to the following equation: […]

[7] = test system: HEC-116 cells; experiment: as above; type: cell-based, human; settings: HEC-116, single agent, 96 hours; brackets: interval
Protocol: The human endometrium adenocarcinoma cell line HEC-116 cell line was purchased at JCRB (Ref number JCRB1124 Batch 11072005). The HEC-116 cells were cultured in MEMa medium supplemented with 15% FBS and 2 mM L-Glutamine.
Compounds (I) and (II) dilutions were prepared according to the material and methods of example 1. The final concentrations tested were defined by ray design method described below. The DMSO concentration was 0.1% in controls and in all treated wells.
as §1
HEC-116 cells were plated at 3,000 cells/well in 384-well plates in appropriate culture medium and incubated for 6 hours at 37° C., 5% CO2. […] Cell growth was evaluated by measuring intracellular ATP using CelltiterGlo® reagent (Promega) according to the manufacturer's protocol. Briefly, CellTiterGlo® was added to each plate, incubated for 1 hour then luminescent signal was read on the MicroBeta Luminescent plate reader.
Three experiments have been performed on this cell line. For each experiment, two 384-well plates were used allowing working with two replicates for combination rays and with four replicates for single agent rays. […]

[8] = target: T1, mTOR; experiment: mTOR inhibition; type: biochemical; settings: up to 10 μM

PI3Kdelta, sequence (O00329 whole entry, species assumed): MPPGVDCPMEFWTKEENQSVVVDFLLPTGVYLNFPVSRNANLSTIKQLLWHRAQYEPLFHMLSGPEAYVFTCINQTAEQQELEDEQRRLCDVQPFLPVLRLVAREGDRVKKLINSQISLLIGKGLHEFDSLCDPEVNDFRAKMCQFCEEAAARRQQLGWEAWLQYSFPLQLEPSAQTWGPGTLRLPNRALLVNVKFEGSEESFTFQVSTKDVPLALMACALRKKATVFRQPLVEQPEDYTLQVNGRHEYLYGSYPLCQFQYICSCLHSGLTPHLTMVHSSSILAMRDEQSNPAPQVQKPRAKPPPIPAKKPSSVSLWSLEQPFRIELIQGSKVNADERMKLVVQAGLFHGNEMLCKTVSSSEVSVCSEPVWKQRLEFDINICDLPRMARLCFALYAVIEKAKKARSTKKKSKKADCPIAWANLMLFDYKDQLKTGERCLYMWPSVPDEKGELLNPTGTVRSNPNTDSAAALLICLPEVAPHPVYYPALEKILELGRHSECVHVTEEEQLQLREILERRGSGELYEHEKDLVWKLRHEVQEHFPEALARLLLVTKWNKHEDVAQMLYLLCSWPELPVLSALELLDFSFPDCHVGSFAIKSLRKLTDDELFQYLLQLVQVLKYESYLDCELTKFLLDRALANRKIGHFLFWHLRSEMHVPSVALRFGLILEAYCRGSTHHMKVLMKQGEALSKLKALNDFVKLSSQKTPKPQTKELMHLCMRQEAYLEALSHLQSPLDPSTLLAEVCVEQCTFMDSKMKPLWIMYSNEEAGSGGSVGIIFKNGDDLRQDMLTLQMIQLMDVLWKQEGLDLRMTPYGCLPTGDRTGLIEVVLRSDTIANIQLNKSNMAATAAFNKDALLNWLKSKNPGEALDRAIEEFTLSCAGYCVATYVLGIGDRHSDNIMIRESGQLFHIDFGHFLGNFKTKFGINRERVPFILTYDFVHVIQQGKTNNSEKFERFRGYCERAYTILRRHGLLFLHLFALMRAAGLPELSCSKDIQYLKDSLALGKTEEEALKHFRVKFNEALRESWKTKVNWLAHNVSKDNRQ
PI3Kdelta, sequence (P27986 whole entry partner, species assumed): as the sequence (P27986 whole entry partner, species assumed) above
PI3Kgamma, sequence (P48736 whole entry, species assumed): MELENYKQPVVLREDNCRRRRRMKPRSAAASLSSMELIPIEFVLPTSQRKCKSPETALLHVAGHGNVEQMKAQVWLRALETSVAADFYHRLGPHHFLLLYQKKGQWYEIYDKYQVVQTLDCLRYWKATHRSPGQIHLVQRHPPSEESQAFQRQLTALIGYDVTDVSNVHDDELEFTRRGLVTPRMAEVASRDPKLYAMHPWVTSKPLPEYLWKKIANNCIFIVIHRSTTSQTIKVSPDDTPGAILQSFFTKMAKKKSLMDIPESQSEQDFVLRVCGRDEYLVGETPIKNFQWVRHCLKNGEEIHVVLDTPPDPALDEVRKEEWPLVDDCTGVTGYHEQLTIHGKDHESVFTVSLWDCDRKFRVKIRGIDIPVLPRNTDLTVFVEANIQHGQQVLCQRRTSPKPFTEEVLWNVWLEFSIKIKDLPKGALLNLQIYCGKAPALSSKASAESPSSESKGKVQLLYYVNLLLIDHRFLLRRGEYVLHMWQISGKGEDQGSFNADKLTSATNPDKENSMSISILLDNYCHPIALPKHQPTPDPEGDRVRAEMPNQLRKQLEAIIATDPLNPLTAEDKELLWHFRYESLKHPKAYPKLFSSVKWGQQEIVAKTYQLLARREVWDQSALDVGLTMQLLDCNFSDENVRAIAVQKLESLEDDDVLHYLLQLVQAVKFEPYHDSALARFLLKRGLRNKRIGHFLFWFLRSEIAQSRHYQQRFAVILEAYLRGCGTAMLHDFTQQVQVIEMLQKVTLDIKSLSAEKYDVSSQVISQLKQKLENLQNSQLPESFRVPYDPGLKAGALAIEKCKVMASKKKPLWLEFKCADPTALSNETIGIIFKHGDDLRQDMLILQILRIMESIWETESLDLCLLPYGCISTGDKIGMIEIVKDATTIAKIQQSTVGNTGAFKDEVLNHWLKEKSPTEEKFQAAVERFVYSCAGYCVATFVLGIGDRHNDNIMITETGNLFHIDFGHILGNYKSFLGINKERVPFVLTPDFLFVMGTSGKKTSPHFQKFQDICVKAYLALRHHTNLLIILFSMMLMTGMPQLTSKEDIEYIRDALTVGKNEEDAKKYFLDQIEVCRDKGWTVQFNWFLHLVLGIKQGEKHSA

Row | Compound | selectivity over PI3Kgamma [1] [fold] | selectivity over PI3Kdelta [2] [fold] | selectivity over mTOR [3] [fold] | selectivity over PI3Kalpha [4] [fold] | inhibition of 294 other kinases [5] | Absolute IC40 (growth inhibition 40%) [6] | Absolute IC40 (growth inhibition 40%) [7] | inhibition of mTOR [8]
1 | Cc1c(Cn2c(C)nc3c(C(=O)O)cc(N4CCOCC4)cc32)cccc1C(F)(F)F [compound (III)] | > 1000 | 12 | > 1000 | > 1000 | less than 30% | – | – | –
2 | Cc1nc(NC(=O)N2CCC[C@H]2C(N)=O)sc1-c1ccnc(C(C)(C)C(F)(F)F)c1 [compound (II), (2S)-N1-[4-Methyl-5-[2-(2,2,2-trifluoro-1,1-dimethylethyl)-4-pyridinyl]-2-thiazolyl]-1,2-pyrrolidinedicarboxamide] | – | – | – | – | – | 14,700 nM | 8,630 nM | –
3 | C[C@H]1Cc2ccccc2N1C(=O)Cc1nc(N2CCOCC2)cc(=O)[nH]1 [compound (I), 2-{2-[(2S)-2-methyl-2,3-dihydro-1H-indol-1-yl]-2-oxoethyl}-6-(morpholin-4-yl)pyrimidin-4(3H)-one] | – | – | – | – | – | 20,200 nM | 12,400 nM | not inhibit
